Source: ChEMBL document CHEMBL1147893, “Carbonic anhydrase inhibitors: the X-ray crystal structure of the adduct of N-hydroxysulfamide with isozyme II explains why this new zinc binding function is effective in the design of potent inhibitors” (Bioorg Med Chem Lett, 2007)

Key:
[1] = target: Carbonic anhydrase 1 (Homo sapiens) (UniProt P00915)
Description: Inhibition of human recombinant carbonic anhydrase 1

[2] = target: Carbonic anhydrase 2 (Homo sapiens) (UniProt P00918)
Description: Inhibition of human recombinant carbonic anhydrase 2

[3] = target: Carbonic anhydrase 9 (Homo sapiens) (UniProt Q16790)
Description: Inhibition of human recombinant carbonic anhydrase 9 catalytic domain by CO2 hydrase method

[4] = target: Carbonic anhydrase 12 (Homo sapiens) (UniProt O43570)
Chain of Carbonic anhydrase 12 (Homo sapiens) (O43570 whole entry): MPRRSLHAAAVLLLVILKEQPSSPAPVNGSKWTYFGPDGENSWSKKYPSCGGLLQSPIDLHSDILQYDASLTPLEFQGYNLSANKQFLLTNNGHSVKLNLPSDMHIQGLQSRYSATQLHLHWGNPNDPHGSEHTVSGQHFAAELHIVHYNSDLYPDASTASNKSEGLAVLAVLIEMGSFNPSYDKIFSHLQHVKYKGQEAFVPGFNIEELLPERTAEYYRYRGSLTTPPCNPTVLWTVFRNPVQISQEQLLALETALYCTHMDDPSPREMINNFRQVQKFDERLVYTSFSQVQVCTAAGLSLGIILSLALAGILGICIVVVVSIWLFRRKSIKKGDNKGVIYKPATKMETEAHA
Description: Inhibition of human recombinant carbonic anhydrase 12 catalytic domain by CO2 hydrase method

Chain of Carbonic anhydrase 1 (Homo sapiens) (P00915 2-261 limits assumed): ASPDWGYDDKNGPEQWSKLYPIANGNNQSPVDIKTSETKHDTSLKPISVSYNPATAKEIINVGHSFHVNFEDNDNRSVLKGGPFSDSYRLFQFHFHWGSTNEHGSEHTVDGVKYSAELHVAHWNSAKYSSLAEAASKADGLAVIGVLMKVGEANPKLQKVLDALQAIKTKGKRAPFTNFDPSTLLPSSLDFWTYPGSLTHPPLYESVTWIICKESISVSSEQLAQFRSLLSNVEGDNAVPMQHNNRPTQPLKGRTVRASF

Compound	Kinact [1]	Kinact [2]	Kinact [3]	Kinact [4]
O=S(=O)([O-])[O-].[Na+].[Na+]	6.3 10^6nM	> 300 10^6nM	> 300 10^6nM	7.7 10^5nM
NS(=O)(=O)O	0.21 10^5nM	0.39 10^6nM	9.2 10^3nM	10.7 10^3nM
